Source: ChEMBL document CHEMBL2157919, “Attenuation of collagen-induced arthritis by orally available imidazoline-based NF-κB inhibitors” (Bioorg Med Chem Lett, 2012)
Calls of active or inactive are those of the source. The calls are words filed in the database; no cut-off is given here.

Key:
[1] = Plasma concentration in BALB/c mouse at 400 mg/kg, po after 3 hrs; assay type: ADME, organism-based; design: dose 400 mg/kg, route oral
Mus musculus [2] = assay: Antiinflammatory activity in BALB/c mouse assessed as reduction of LPS-induced TNFalpha production in serum at 5 mg/kg, po administered 1 hr before LPS challenge measured after 3 hrs by EIA relative to LPS treated control; assay type: functional; design: scale not given: the % may be the effect or the level left
[3] = Plasma concentration in BALB/c mouse at 200 mg/kg, po after 3 hrs; assay type: ADME, organism-based; design: dose 200 mg/kg, route oral
Mus musculus [4] = assay: Toxicity in BALB/c mouse type 2 collagen antibody-induced arthritis model assessed as change in body weight at 50 mg/kg, ip qd for 14 days measured on day 20; assay type: organism-based; design: dose 50 mg/kg, route intraperitoneal; settings: in vivo, 336 h
Mus musculus [5] = assay: Antiarthritic activity in BALB/c mouse type 2 collagen antibody-induced arthritis model assessed as physiological disease-modifying affect at 50 mg/kg, ip qd for 14 days measured on day 20 relative to control; assay type: functional, organism-based; design: dose 50 mg/kg
Mus musculus [6] = assay: Antiinflammatory activity in BALB/c mouse assessed as reduction of LPS-induced TNFalpha production in serum at 5 to 100 mg/kg, po administered 1 hr before LPS challenge measured after 3 hrs by EIA; assay type: functional; design: scale not given: the % may be the effect or the level left; settings: dose mg/kg 5-100
[7] = Plasma concentration in BALB/c mouse at 50 mg/kg, ip after 3 hrs; assay type: ADME, organism-based; design: dose 50 mg/kg, route intraperitoneal
[8] = Plasma concentration in BALB/c mouse at 50 mg/kg, po after 3 hrs; assay type: ADME, organism-based; design: dose 50 mg/kg, route oral
Mus musculus [9] = assay: Antiarthritic activity in BALB/c mouse type 2 collagen antibody-induced arthritis model assessed as inhibition of disease burden at 50 mg/kg, ip qd for 14 days measured on day 20 relative to control; assay type: functional; settings: route intraperitoneal
Mus musculus [10] = assay: Hepatotoxicity in BALB/c mouse assessed as increase in serum ALT level at 50 mg/kg, ip after 13 to 19 days; assay type: toxicity, organism-based; design: dose 50 mg/kg, route intraperitoneal; settings: in vivo
Mus musculus [11] = assay: Antiarthritic activity in BALB/c mouse type 2 collagen antibody-induced arthritis model assessed as physiological disease-modifying affect at 150 mg/kg, ip qd for 14 days measured on day 20 relative to control; assay type: functional, organism-based; design: dose 150 mg/kg
Mus musculus [12] = assay: Antiarthritic activity in BALB/c mouse type 2 collagen antibody-induced arthritis model assessed as reduction of bone resorption at 150 mg/kg, ip qd for 14 days measured on day 20 relative to control; assay type: functional, organism-based; design: dose 150 mg/kg
Mus musculus [13] = assay: Antiarthritic activity in BALB/c mouse type 2 collagen antibody-induced arthritis model assessed as reduction of cartilage damage at 150 mg/kg, ip qd for 14 days measured on day 20 relative to control; assay type: functional, organism-based; design: dose 150 mg/kg
Mus musculus [14] = assay: Antiarthritic activity in BALB/c mouse type 2 collagen antibody-induced arthritis model assessed as inhibition of disease burden at 150 mg/kg, ip qd for 14 days measured on day 20 relative to control; assay type: functional; settings: route intraperitoneal
Mus musculus [15] = assay: Antiarthritic activity in BALB/c mouse type 2 collagen antibody-induced arthritis model assessed as reduction of pannus formation at 150 mg/kg, ip qd for 14 days measured on day 20 relative to control; assay type: functional, organism-based; design: dose 150 mg/kg
Mus musculus [16] = assay: Antiarthritic activity in BALB/c mouse type 2 collagen antibody-induced arthritis model assessed as reduction of exostosis at 150 mg/kg, ip qd for 14 days measured on day 20 relative to control; assay type: functional, organism-based; design: dose 150 mg/kg
Mus musculus [17] = assay: Hepatotoxicity in BALB/c mouse assessed as increase in serum ALT level at 150 mg/kg, po after 6 hrs; assay type: toxicity, organism-based; design: dose 150 mg/kg, route oral; settings: in vivo
Mus musculus [18] = assay: Hepatotoxicity in BALB/c mouse assessed as increase in serum ALT level at 150 mg/kg, ip after 13 to 19 days; assay type: toxicity, organism-based; design: dose 150 mg/kg, route intraperitoneal; settings: in vivo
Mus musculus [19] = assay: Toxicity in BALB/c mouse type 2 collagen antibody-induced arthritis model assessed as change in body weight at 150 mg/kg, ip qd for 14 days measured on day 20; assay type: organism-based; design: dose 150 mg/kg, route intraperitoneal; settings: in vivo, 336 h
Mus musculus [20] = assay: Antiarthritic activity in BALB/c mouse type 2 collagen antibody-induced arthritis model assessed as reduction of inflammation at 150 mg/kg, ip qd for 14 days measured on day 20 relative to control; assay type: functional, organism-based; design: dose 150 mg/kg
Mus musculus [21] = assay: Hepatotoxicity in BALB/c mouse assessed as increase in serum ALT level at 50 mg/kg, po after 6 hrs; assay type: toxicity, organism-based; design: dose 50 mg/kg, route oral; settings: in vivo
Mus musculus [22] = assay: Toxicity in BALB/c mouse type 2 collagen antibody-induced arthritis model assessed as change in body weight at 3 mg/kg, po qd for 14 days measured on day 20; assay type: organism-based; design: dose 3 mg/kg, route oral; settings: in vivo, 336 h
Mus musculus [23] = assay: Antiarthritic activity in BALB/c mouse type 2 collagen antibody-induced arthritis model assessed as inhibition of disease burden at 3 mg/kg, po qd for 14 days measured on day 20 relative to control; assay type: functional
Mus musculus [24] = assay: Antiarthritic activity in BALB/c mouse type 2 collagen antibody-induced arthritis model assessed as physiological disease-modifying affect at 3 mg/kg, po qd for 14 days measured on day 20 relative to control; assay type: functional, organism-based; design: dose 3 mg/kg

Question: Which results are given for CCOC(=O)[C@]1(c2ccccc2)N=C(c2ccccc2)N(Cc2ccccc2)[C@@H]1c1ccccc1?
Answer: concentration at 3 h [1]: 9 µM; Activity (Mus musculus [2]): 50%; concentration at 3 h [3]: 4 µM; Activity (Mus musculus [4]): Non-toxic; Activity (Mus musculus [5]): Active; Activity (Mus musculus [6]): 50%; concentration at 3 h [7]: 6 µM; concentration at 3 h [8]: 2 µM; inhibition in vivo at 50 mg/kg (Mus musculus [9]): 67%

Question: For CCOC(=O)C1(c2ccccc2)N=C(c2ccccc2)N(Cc2ccccc2)C1c1ccccc1 (racemic), which Activity (Mus musculus [10]) is on record?
Answer: Non-toxic

Question: What about the Activity (Mus musculus [11]) of the same compound?
Answer: Active

Question: And the Activity (Mus musculus [12])?
Answer: Active

Question: What about the Activity (Mus musculus [13]) of the same compound?
Answer: Active

Question: And the inhibition in vivo at 150 mg/kg (Mus musculus [14])?
Answer: 94%

Question: What about the Activity (Mus musculus [15]) of the same compound?
Answer: Active

Question: What about the Activity (Mus musculus [16]) of the same compound?
Answer: Active

Question: And the Activity (Mus musculus [17])?
Answer: Non-toxic

Question: What about the Activity (Mus musculus [18]) of the same compound?
Answer: Non-toxic

Question: What about the Activity (Mus musculus [19]) of the same compound?
Answer: Non-toxic

Question: And the Activity (Mus musculus [20])?
Answer: Active

Question: And the Activity (Mus musculus [21])?
Answer: Non-toxic

Question: For C[C@@H]1C[C@H]2[C@@H]3CCC4=CC(=O)C=C[C@]4(C)[C@@]3(F)[C@@H](O)C[C@]2(C)[C@@]1(O)C(=O)CO [DEXAMETHASONE], which Activity (Mus musculus [22]) is on record?
Answer: Toxic

Question: What about the inhibition in vivo at 3 mg/kg (Mus musculus [23]) of the same compound?
Answer: 102%

Question: What about the Activity (Mus musculus [24]) of the same compound?
Answer: Active
